Each structure is given as a SMILES string. Non-standard residues stand in square brackets, D forms with d. Residues, ends and D or L forms follow the SMILES beside them. *: point of attachment. AFC = O=c1cc(C(F)(F)F)c2ccc(N*)cc2o1; pNA = O=[N+]([O-])c1ccc(N*)cc1; Cbz = O=C(OCc1ccccc1)*; Sar = CNCC(=O)O A value given as a limit tells only on which side of the number the result lay.

The first assay addresses T1, human a-thrombin (Homo sapiens, UniProt P00734).
T1 construct: human a-thrombin
Briefly: In vitro assay for determining proteinase inhibition (thrombin Ki). The class given is biochemical. The settings on record: 25° C., 0.05 M TRIS buffer pH 7.4, 0.15 M NaCl, 0.1% PEG. As to the method:
In vitro Assay for Determining Proteinase Inhibition
(§1) Assays of human a-thrombin and human trypsin were performed at 25° C. in 0.05 M TRIS buffer pH 7.4, 0.15 M NaCl, 0.1% PEG. Trypsin assays also contained 1 mM CaCl2.
(§2) In certain studies with potent inhibitors (Ki <10 nM) where the degree of inhibition of thrombin was high, a more sensitive activity assay was employed. […] Concentrations of stock solutions of Z-GPR-afc were determined from measurements of absorbance at 380 nm of the 7-amino-4-trifluoromethylcoumarin produced upon complete hydrolysis of an aliquot of the stock solution by thrombin.
Activity assays were performed by diluting a stock solution of substrate at least tenfold to a final concentration <0.5 Km into a solution containing enzyme or enzyme equilibrated with inhibitor. Times required to achieve equilibration between enzyme and inhibitor were determined in control experiments. Initial velocities of product formation in the absence (V0) or presence of inhibitor (Vi) were measured. Assuming competitive inhibition, and that unity is negligible compared Km /[S], […] (where [S], [I], and e respectively represent the total concentrations, of substrate, inhibitor and enzyme), the equilibrium constant (Ki) for dissociation of the inhibitor from the enzyme can be obtained from the dependence of V0 /Vi on [I] shown in equation 1.
Consider `CC(C)[C@@H](CCNc1ccncc1)NC(=O)CNS(=O)(=O)c1ccc(Cl)c(Cl)c1` [(CH3)2 CH2 -- 1 3,4-di-Cl--PhSO2 -- H], for which the Ki – broadly, a measure of affinity in units of concentration, obtained from inhibition or displacement – was below 1000 nM.

Regarding `CC(C)[C@@H](CCNc1ccncc1)NC(=O)CNS(=O)(=O)Cc1ccccc1` [(CH3)2 CH2 -- 1 BnSO2 -- H], the Ki is above 1000 nM.

Compound `O=C(CNS(=O)(=O)c1ccc(Cl)cc1)N[C@H](CNc1ccncc1)Cc1ccccc1` [Bn 0 4-ClPhSO2 -- H] gave a Ki above 1000 nM.

`CC(C)(C)OC(=O)NCC(=O)N[C@H](CNc1ccncc1)Cc1ccccc1` [Bn 0 Boc H] registered an inhibition constant (Ki) above 1000 nM.

With `O=C(CNS(=O)(=O)c1ccccc1)N[C@H](CNc1ccncc1)Cc1ccccc1` [Bn 0 PhSO2 -- H], the Ki is above 1000 nM.

Turning to `O=C(CNS(=O)(=O)c1ccc2ccccc2c1)N[C@H](CCNc1ccncc1)Cc1ccccc1` [Bn 1 2-naphthSO2 -- H], the Ki is below 1000 nM.

Compound `O=C(CNS(=O)(=O)Cc1ccc(Cl)c(Cl)c1)N[C@H](CCNc1ccncc1)Cc1ccccc1` [Bn 1 3,4-di-Cl--BnSO2 -- H] registered a Ki below 1000 nM.

Take `O=C(N[C@H](CCNc1ccncc1)Cc1ccccc1)[C@H](CO)NS(=O)(=O)c1ccc(Cl)c(Cl)c1` [Bn 1 3,4-di-Cl--PhSO2 -- (S)-CH2 OH]: the Ki is below 1000 nM.

`O=C(CNS(=O)(=O)c1ccc(Cl)c(Cl)c1)N[C@H](CCNc1ccncc1)Cc1ccccc1` [Bn 1 3,4-di-Cl--PhSO2 -- H] registered a Ki below 1000 nM.

In turn, `O=C(CNS(=O)(=O)Cc1ccc(C(F)(F)F)cc1)N[C@H](CCNc1ccncc1)Cc1ccccc1` [Bn 1 4-CF3 --BnSO2 -- H] displayed a Ki below 1000 nM.

`O=C(CNS(=O)(=O)Cc1ccc(Cl)cc1)N[C@H](CCNc1ccncc1)Cc1ccccc1` [Bn 1 4-Cl--BnSO2 -- H] had a Ki below 1000 nM.

In the case of `O=C(CNS(=O)(=O)c1ccc(Cl)cc1)N[C@H](CCNc1ccncc1)Cc1ccccc1` [Bn 1 4-Cl--PhSO2 -- H], the Ki is below 1000 nM.

Regarding `COc1cc(C)c(S(=O)(=O)NCC(=O)N[C@H](CCNc2ccncc2)Cc2ccccc2)c(C)c1C` [Bn 1 4-OCH3-2,3,6-MePhSO2 -- H], the Ki is below 1000 nM.

On to `C[C@@H](NS(=O)(=O)Cc1ccccc1)C(=O)N[C@H](CCNc1ccncc1)Cc1ccccc1` [Bn 1 BnSO2 -- (R)-CH3], for which the Ki was above 1000 nM.

`CS(=O)(=O)CC[C@H](NS(=O)(=O)Cc1ccccc1)C(=O)N[C@H](CCNc1ccncc1)Cc1ccccc1` [Bn 1 BnSO2 -- (S)- CH2 CH2 SO2 CH3] showed a Ki below 1000 nM.

In turn, `CSCC[C@H](NS(=O)(=O)Cc1ccccc1)C(=O)N[C@H](CCNc1ccncc1)Cc1ccccc1` [Bn 1 BnSO2 -- (S)-CH2 CH2 SCH3] came in with a Ki below 1000 nM.

As to `C[C@H](NS(=O)(=O)Cc1ccccc1)C(=O)N[C@H](CCNc1ccncc1)Cc1ccccc1` [Bn 1 BnSO2 -- (S)-CH3], the Ki was below 1000 nM.

The compound `O=C(CNS(=O)(=O)Cc1ccccc1)N[C@H](CCNc1ccncc1)Cc1ccccc1` [Bn 1 BnSO2 -- H] gave a Ki below 1000 nM.

Consider `NC(Cc1ccc(Cl)cc1)C(=O)N[C@H](CCNc1ccncc1)Cc1ccccc1` (some centres unmarked) [Bn 1 H 4-ClBn--], for which the Ki was below 1000 nM.

For the compound `O=C(CNS(=O)(=O)C=Cc1ccccc1)N[C@H](CCNc1ccncc1)Cc1ccccc1` [Bn 1 PhCH=CHSO2 -- H], the Ki was below 1000 nM.

For `O=C(CNS(=O)(=O)c1ccccc1)N[C@H](CNc1ccncc1)CC1CCCCC1` [c-hexylCH2 -- 0 PhSO2 -- H], the Ki is above 1000 nM.

Another assay concerns human trypsin. Nature of the assay: Hydrolysis of p-nitroanilide substrate by human trypsin (405 nm). The class given is biochemical. The following applies: substrate for human trypsin, 25° C., pH 7.4, 1 mM CaCl2. As to the method: as §1
For the compound `CNCC(=O)N1CCC[C@H]1C(=O)N[C@@H](CCCNC(=N)N)C(=O)Nc1ccc([N+](=O)[O-])cc1` [sar-PR-pna, sarcosine-Pro-Arg-p-nitroanilide] (H-[Sar]-Pro-Arg-pNA), the Km (usually the substrate concentration at which the rate is half of its maximum) stood at 59 µM.

Another assay deals with thrombin. Nature of the assay: Thrombin catalyzed hydrolysis of fluorogenic substrate (fluorescence at 500 nm). The class given is biochemical, human. The following applies: fluorogenic substrate for thrombin, excitation at 400 nm. As to the method: as §1, §2
For the compound `N=C(N)NCCC[C@H](NC(=O)[C@@H]1CCCN1C(=O)CNC(=O)OCc1ccccc1)C(=O)Nc1ccc2c(C(F)(F)F)cc(=O)oc2c1` [Z-GPR-afc, Cbz-Gly-Pro-Arg-7-amino-4-trifluoromethylcoumarin] (Cbz-Gly-Pro-Arg-{AFC}), the Km stood at 27 µM.
